Source: US20100034757A1, “EXTRACT POWDER OF INDIGO PLANT, AND ITS PREPARATION AND USES” (priority 2006, published 2010)
Values after ≈ are worked out from the molar mass of the structure shown. Like-named read-outs stand apart in the source and are kept apart here.

Assays:
[1] = system: mouse melanoma B16 cells; assay: Influence of extract powder and other skin-whitening ingredients on melanin formation (Test 2 for in vitro skin-whitening effect, Experiment 4); type: cell-based; set-up: Judgement, 1.25% extract powder of indigo plant: key to the marks not given beside the values; conditions: 72 hours
Procedure: The following experiment was conducted to examine the influence of an extract powder of indigo plant and other ingredients with skin-whitening action on melanin formation. Mouse melanoma B16 cells were cultured for 24 hours, and to the resulting culture was added any one of the test solutions to give a composition ratio (%) of each of […], followed by culturing for 72 hours. The viable cells were counted and packed into a capillary tube for color observation. The judgement of the effects was evaluated based on the same criterion as in Experiment 1. In this experiment system, the effect in the case of culturing the cells with addition of 0.025% of the extract powder of indigo extract was judged to be “+”.

[2] = system: A. actinomycetemcomitans; assay: Minimum inhibitory concentration (MIC), Experiment 13; type: cell-based, Actinobacillus actinomycetemcomitans; conditions: for MIC: Aggregatibacter actinomycetemcomitans, read-out: Minimum inhibitory concentration (MIC)
Procedure: (§1) The following experiment was conducted to examine the influence of an extract powder of indigo plant on microorganisms in human oral cavity. An extract powder of indigo plant, prepared by the method in the later described Example 1, was dissolved in refined water to obtain an aqueous solution with a concentration of 1.5% indigo plant extract, d.s.b. Using the aqueous solution, the minimum inhibitory concentration (may be designated as “MIC”, hereinafter) against microorganisms in human oral cavity (microorganisms as causatives of periodontal diseases and dental caries) was determined. Tryptanthrin, gallic acid, and caffeic acid, which had been confirmed to be contained in the indigo extract, were determined for MIC against microorganisms in human oral cavity, and the data was shown in Table 9 in parallel. The following method was used for assaying MIC.
(§2) The MICs of an extract powder of indigo plant, tryptanthrin, gallic acid, and caffeic acid against microorganisms in human oral cavity were determined according to the standard method of Japanese Society of Chemotherapy (see “Saikin-Shinkin-Kensa (Test for Bacteria and Fungi), 2nd Edition”, pp. 524-529 (1982)). Examples of microorganisms, used as causatives of periodontal diseases, were microorganisms of Prophyromonas gingivalis strains such as JCM8525, JCM12257, and ATCC 33277 strains; those of Actinobacillus actinomycetemcomitans (may be abbreviated as “A. actinomycetemcomitans”) such as JCM2434 and JCM8577 strains; Prevotella intermedia (may be abbreviated as P. intermedia) JCM7365 strain; and Campylobacter rectus (may be abbreviated as C. rectus) JMC6301 strain. Examples of microorganisms, used as causatives of dental caries, were Streptococcus mutans strains such as OMZ-175, OMZ-176, OMZ-65, OMZ-61, B-13D, and Ingbritt strains; and Streptococcus sobrinus (may be abbreviated as “S. sobrinus”) 6715 strain. Among these microorganisms, those which are causatives of periodontal diseases were cultured at 37° C. for 48 hours, while those which are causatives of dental caries were cultured at 37° C. for 18 to 24 hours under anaerobic conditions by using a brain heart infusion (abbreviated as “BHI”, hereinafter), commercialized by Difco Laboratories, Detroit, USA, supplemented with 5 μg/ml of hemin, and 0.5 μg/ml of vitamin K3. The resulting cultures of the microorganisms, as causatives of both periodontal diseases and dental caries, were respectively diluted into solutions with 10^8 cells and 10^6 cells.

[3] = system: P. gingivalis; assay: as above; type: cell-based, Prophyromonas gingivalis; conditions: for MIC: Porphyromonas gingivalis
Procedure: as §1, §2

[4] = system: P. intermedia; assay: as above; type: cell-based; conditions: Prevotella intermedia, read-out: Minimum inhibitory concentration (MIC)
Procedure: as §1, §2

[5] = system: C. rectus; assay: as above; type: cell-based; conditions: Campylobacter rectus, read-out: Minimum inhibitory concentration (MIC)
Procedure: as §1, §2

[6] = system: S. mutans; assay: as above; type: cell-based; conditions: Streptococcus mutans
Procedure: as §1, §2

[7] = system: S. sobrinus; assay: as above; type: cell-based; conditions: Streptococcus sobrinus, read-out: Minimum inhibitory concentration (MIC)
Procedure: as §1, §2

[8] = system: mouse melanoma B16 cells; assay: Influence on melanin formation, blackening of cells (Test 1 for in vitro whitening effect, Experiment 3); type: cell-based; conditions: medium containing 2.5 mM; cultured 72 hours
Procedure: Using a dried leaf of Polygonum tinctorium Lour., Japanese knotweed, buckwheat, or knotgrass as a plant of the family Polygonaceae, extract powders of which were prepared. The extract powders of indigo plant were prepared by the method in later described Example 2. According to the same method as in Example 2, using a dried leaf of Japanese knotweed, buckwheat, or knotgrass in place of the one of Polygonum tinctorium Lour., extract powders of the above plants were prepared for use in the following experiment, where, as an extract powder of indigo plant, the one prepared by the method in later described Example 2 was used, unless specified otherwise. […] After counting the number of viable cells, the viable cells were packed into a capillary tube for color observation. […] The degree of blackening of the B16 cells was evaluated based on the following criterion, and the results are in Table 3. Evaluations with Reference to the Blackening Degree of Control Free of Agent: −: Unchanged; ±: Slight inhibition of blackening; +: Positive inhibition of blackening; ++: Clear inhibition of blackening; +++: Complete inhibition of blackening.

[9] = ingredient 1.0% in combination with extract powder of indigo plant
[10] = ingredient 0.5% in combination with extract powder of indigo plant
[11] = strain JMC12257, read-out: Minimum inhibitory concentration (MIC)
[12] = strain B-13D, read-out: Minimum inhibitory concentration (MIC)
[13] = strain Ingbritt, read-out: Minimum inhibitory concentration (MIC)
[14] = strain OMZ-61, read-out: Minimum inhibitory concentration (MIC)
[15] = strain OMZ-65, read-out: Minimum inhibitory concentration (MIC)
[16] = strain OMZ-175, read-out: Minimum inhibitory concentration (MIC)
[17] = strain OMZ-176, read-out: Minimum inhibitory concentration (MIC)

In the case of `COc1ccc(C(=O)[O-])c(O)c1.[K+]` [4-Methoxysalicylic acid potassium salt], the “Judgement, With no extract powder of indigo plant” value (shortened to “Judgement, With no extract powder”) ([1]; composition ratio 1.0%) is reported as “+” and the “Judgement, 1.25% extract powder of indigo plant” value (“Judgement, 1.25% extract powder” for short) [1, 9] is reported as “+++”.
With `CCCCc1ccc(O)cc1O` [4-n-Butylresorcinol] the “Judgement, With no extract powder” value ([1]; composition ratio 0.5%) was “+” and the “Judgement, 1.25% extract powder” value [1, 10] was “+++”.
For `OC[C@H]1O[C@@H](Oc2ccc(O)cc2)[C@H](O)[C@@H](O)[C@@H]1O` [Arbutin], the “Judgement, With no extract powder” value ([1]; composition ratio 0.5%) was “+” and the “Judgement, 1.25% extract powder” value [1, 10] was “+++”.
For `O=C(O)/C=C/c1ccc(O)c(O)c1` [Caffeic acid], the MIC ([2]; strain JMC2434) was 400 µg/mL (≈ 2220 µM), the MIC ([2]; strain JMC8577) was 200 µg/mL (≈ 1110 µM) and the MIC [3, 11] was 400 µg/mL (≈ 2220 µM). For the same compound, the “Minimum inhibitory concentration (MIC)” value ([3]; strain JCM8525) was 400 µg/mL (≈ 2220 µM), the “Minimum inhibitory concentration (MIC)” value ([3]; strain JMC33277) was 400 µg/mL (≈ 2220 µM) and the MIC ([4]; strain JMC7365) was 400 µg/mL (≈ 2220 µM). For the same compound, the MIC ([5]; strain JMC6301) was 100 µg/mL (≈ 555 µM), the MIC [6, 12] was 200 µg/mL (≈ 1110 µM) and the MIC [6, 13] was 1600 µg/mL (≈ 8880 µM). It also gave an MIC [6, 14] of 400 µg/mL (≈ 2220 µM), an MIC [6, 15] of 200 µg/mL (≈ 1110 µM) and an MIC [6, 16] of 400 µg/mL (≈ 2220 µM). For the same compound, the MIC [6, 17] was 800 µg/mL (≈ 4440 µM) and the MIC ([7]; strain 6715) was 800 µg/mL (≈ 4440 µM).
With `O=c1oc2c(O)c(O)cc3c(=O)oc4c(O)c(O)cc1c4c23` [Ellagic acid] the “Judgement, With no extract powder” value ([1]; composition ratio 0.5%) was “±” and the “Judgement, 1.25% extract powder” value [1, 10] was “++”.
In the case of `O=C(O)c1cc(O)c(O)c(O)c1` [Gallic acid], the MIC ([2]; strain JMC2434) is reported as 800 µg/mL (≈ 4700 µM), the MIC ([2]; strain JMC8577) is reported as 800 µg/mL (≈ 4700 µM) and the MIC [3, 11] is reported as 400 µg/mL (≈ 2350 µM). For the same compound, the “Minimum inhibitory concentration (MIC)” value ([3]; strain JCM8525) was 400 µg/mL (≈ 2350 µM), the “Minimum inhibitory concentration (MIC)” value ([3]; strain JMC33277) was 400 µg/mL (≈ 2350 µM) and the MIC ([4]; strain JMC7365) was 400 µg/mL (≈ 2350 µM). The MIC ([5]; strain JMC6301) was 400 µg/mL (≈ 2350 µM), the MIC [6, 12] was 200 µg/mL (≈ 1180 µM) and the MIC [6, 13] was 1600 µg/mL (≈ 9410 µM). It also gave an MIC [6, 14] of 200 µg/mL (≈ 1180 µM), an MIC [6, 15] of 1600 µg/mL (≈ 9410 µM) and an MIC [6, 16] of 400 µg/mL (≈ 2350 µM). It also gave an MIC [6, 17] of 400 µg/mL (≈ 2350 µM) and an MIC ([7]; strain 6715) of 800 µg/mL (≈ 4700 µM).
With `O=c1cc(CO)occ1O` [Kojic acid] the “Judgement (inhibition of blackening of B16 cells)” value [8] was “+”, the “Judgement, With no extract powder” value ([1]; composition ratio 1.0%) was “+” and the “Judgement, 1.25% extract powder” value [1, 9] was “+++”.
For `CCCCC/C=C\C/C=C\CCCCCCCC(=O)O` [Linoleic acid], the “Judgement, With no extract powder” value ([1]; composition ratio 0.5%) was “±” and the “Judgement, 1.25% extract powder” value [1, 10] was “++”.
`O=C1O[C@H]([C@@H](O)CO)C([O-])=C1O.[Na+]` [Sodium L-ascorbate] was tested, and the “Judgement, With no extract powder” value ([1]; composition ratio 2.0%) was “+” and the “Judgement, 1.25% extract powder” value ([1]; ingredient 2.0% in combination with extract powder of indigo plant) was “+++”.
In the case of `COc1cc(CCC(=O)CC(=O)CCc2ccc(O)c(OC)c2)ccc1O` [Tetrahydrocurcumin], the “Judgement, With no extract powder” value ([1]; composition ratio 0.5%) is reported as “±” and the “Judgement, 1.25% extract powder” value [1, 10] is reported as “++”.
`NC[C@H]1CC[C@H](C(=O)O)CC1` [Tranexamic acid] was tested, and the “Judgement, With no extract powder” value ([1]; composition ratio 1.0%) was “±” and the “Judgement, 1.25% extract powder” value [1, 9] was “++”.
`O=C1c2ccccc2-n2c1nc1ccccc1c2=O` [Tryptanthrin] was tested, and the MIC [2] was 25 µg/mL (≈ 101 µM), the “Minimum inhibitory concentration (MIC)” value ([2]; strain JMC2434) was 25 µg/mL (≈ 101 µM) and the MIC ([3]; read-out: Minimum inhibitory concentration (MIC), strain JMC8525) was 6.25 µg/mL (≈ 25.2 µM). For the same compound, the MIC ([3]; read-out: Minimum inhibitory concentration (MIC), strain JMC12257) was 12.5 µg/mL (≈ 50.4 µM), the MIC ([3]; read-out: Minimum inhibitory concentration (MIC), strain JMC33277) was 12.5 µg/mL (≈ 50.4 µM) and the MIC [4] was 6.25 µg/mL (≈ 25.2 µM). The MIC [5] was 25 µg/mL (≈ 101 µM), the MIC ([6]; read-out: Minimum inhibitory concentration (MIC), strain B-13D) was 6.25 µg/mL (≈ 25.2 µM) and the MIC ([6]; read-out: Minimum inhibitory concentration (MIC), strain Ingbritt) was 25 µg/mL (≈ 101 µM). For the same compound, the MIC ([6]; read-out: Minimum inhibitory concentration (MIC), strain OMZ-61) was 6.25 µg/mL (≈ 25.2 µM), the MIC ([6]; read-out: Minimum inhibitory concentration (MIC), strain OMZ-65) was 12.5 µg/mL (≈ 50.4 µM) and the MIC ([6]; read-out: Minimum inhibitory concentration (MIC), strain OMZ-175) was 6.25 µg/mL (≈ 25.2 µM). It also gave an MIC ([6]; read-out: Minimum inhibitory concentration (MIC), strain OMZ-176) of 12.5 µg/mL (≈ 50.4 µM) and an MIC [7] of 25 µg/mL (≈ 101 µM).
